This note sets out measurements from US11584737B2, “Heterocyclic compound” (TAKEDA PHARMACEUTICAL COMPANY LIMITED, priority 2018, dated 2023).

Molecules are shown by their SMILES.

Broadly, the inhibition is the change of the read-out against control, counted positive when it falls.

T1 sequence (Q9NYV4 whole entry, species assumed): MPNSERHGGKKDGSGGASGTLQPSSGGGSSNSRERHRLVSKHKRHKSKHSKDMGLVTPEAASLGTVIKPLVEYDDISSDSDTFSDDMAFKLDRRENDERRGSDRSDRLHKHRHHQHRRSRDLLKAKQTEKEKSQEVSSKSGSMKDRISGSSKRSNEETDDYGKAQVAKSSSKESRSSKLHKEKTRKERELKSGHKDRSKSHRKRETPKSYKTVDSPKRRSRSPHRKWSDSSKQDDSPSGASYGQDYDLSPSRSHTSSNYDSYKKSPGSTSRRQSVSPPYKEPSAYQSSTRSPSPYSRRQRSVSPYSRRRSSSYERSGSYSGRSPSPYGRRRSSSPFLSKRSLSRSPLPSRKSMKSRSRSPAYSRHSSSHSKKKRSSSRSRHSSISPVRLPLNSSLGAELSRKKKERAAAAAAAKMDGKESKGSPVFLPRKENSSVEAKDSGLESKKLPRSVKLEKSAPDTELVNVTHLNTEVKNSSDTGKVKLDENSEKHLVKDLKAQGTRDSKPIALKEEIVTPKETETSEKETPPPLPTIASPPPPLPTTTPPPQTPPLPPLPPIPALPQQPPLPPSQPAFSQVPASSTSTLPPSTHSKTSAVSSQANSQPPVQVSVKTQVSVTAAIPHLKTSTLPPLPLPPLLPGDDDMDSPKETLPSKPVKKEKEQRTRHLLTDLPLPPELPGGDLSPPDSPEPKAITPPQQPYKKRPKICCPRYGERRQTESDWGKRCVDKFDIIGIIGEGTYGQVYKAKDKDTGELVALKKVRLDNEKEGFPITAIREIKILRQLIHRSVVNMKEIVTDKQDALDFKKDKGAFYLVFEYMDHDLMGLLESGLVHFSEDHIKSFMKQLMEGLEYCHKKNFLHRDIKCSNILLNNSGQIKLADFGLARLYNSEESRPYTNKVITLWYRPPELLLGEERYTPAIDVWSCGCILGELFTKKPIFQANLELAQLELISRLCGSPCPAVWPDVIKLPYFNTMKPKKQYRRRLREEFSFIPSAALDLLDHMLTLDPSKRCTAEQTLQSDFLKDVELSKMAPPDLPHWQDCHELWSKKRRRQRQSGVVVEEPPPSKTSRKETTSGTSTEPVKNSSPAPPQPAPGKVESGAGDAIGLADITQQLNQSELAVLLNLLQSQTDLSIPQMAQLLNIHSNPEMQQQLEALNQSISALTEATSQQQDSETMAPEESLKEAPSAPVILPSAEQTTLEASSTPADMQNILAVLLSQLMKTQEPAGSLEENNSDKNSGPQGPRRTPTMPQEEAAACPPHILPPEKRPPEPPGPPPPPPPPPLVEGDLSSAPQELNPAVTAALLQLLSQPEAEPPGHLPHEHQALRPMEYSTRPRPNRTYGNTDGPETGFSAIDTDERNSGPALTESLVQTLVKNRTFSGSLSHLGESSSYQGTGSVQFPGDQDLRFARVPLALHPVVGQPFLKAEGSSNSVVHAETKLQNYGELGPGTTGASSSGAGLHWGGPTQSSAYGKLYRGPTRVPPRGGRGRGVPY
T1 sequence (O75909 whole entry partner, species assumed): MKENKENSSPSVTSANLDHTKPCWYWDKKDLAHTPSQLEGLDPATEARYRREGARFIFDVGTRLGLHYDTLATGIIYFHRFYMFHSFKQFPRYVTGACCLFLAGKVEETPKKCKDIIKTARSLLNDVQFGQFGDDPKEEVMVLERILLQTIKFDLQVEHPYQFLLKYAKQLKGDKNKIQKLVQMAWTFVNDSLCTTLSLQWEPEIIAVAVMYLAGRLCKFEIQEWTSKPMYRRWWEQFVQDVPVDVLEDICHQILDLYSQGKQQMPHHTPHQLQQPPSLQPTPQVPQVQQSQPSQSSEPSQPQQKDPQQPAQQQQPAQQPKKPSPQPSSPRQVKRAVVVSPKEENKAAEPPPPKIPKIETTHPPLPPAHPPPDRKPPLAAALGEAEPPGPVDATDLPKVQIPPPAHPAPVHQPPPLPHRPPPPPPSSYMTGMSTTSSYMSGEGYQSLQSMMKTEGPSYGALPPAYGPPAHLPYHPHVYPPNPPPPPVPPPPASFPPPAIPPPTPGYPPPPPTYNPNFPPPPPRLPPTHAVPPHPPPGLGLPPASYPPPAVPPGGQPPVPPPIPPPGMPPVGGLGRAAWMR

The first assay has as its target T1, CDK12/CycK complex (Homo sapiens, UniProt Q9NYV4). In words: Measurement of CDK12 inhibitory activity by binding assay (TR-FRET, 66 nM BODIPY-FL-labeled AT-7519). To be noted: inhibitory rate against CDK12 at 1 μM test compound, 66 nM BODIPY-FL-labeled AT-7519, 2 nM CDK12/CycK. As to the method:
Experimental Example 1: CDK12 Binding Assay
(3) Measurement of CDK12 Inhibitory Activity by Binding Assay
(§1) His-tagged CDK12/CycK complex was added to a binding assay buffer supplemented with BODIPY-FL labeled AT-7519, terbium-labeled streptavidin and biotin-labeled anti-histidine antibody, and the mixture was stood for not less than 60 min at room temperature. This solution was added to an assay plate containing a test compound dispensed therein, and the mixture was left standing for 120 min at room temperature. The final concentration of CDK12/CycK complex, BODIPY-FL-labeled AT-7519, terbium-labeled streptavidin and biotin-labeled anti-histidine antibody was set to 2 nM, 66 nM, 0.2 nM, and 0.4 nM, respectively. The fluorescence intensity derived from terbium and BODIPY-FL was measured using Envision. The signal value of each well was determined using the TR-FRET ratio calculated by the following formula. TR-FRET ratio=(fluorescence value of BODIPY-FL)÷(fluorescence value of terbium)
(§2) The inhibitory rate (%) of the test compound against CDK12 was calculated by the following formula. Inhibitory rate (%)=(1−(TR-FRET ratio of test compound−blank)÷(control−blank))×100
The TR-FRET ratio of the CDK12 enzyme reaction mixture under compound non-addition conditions is indicated as control, and the TR-FRET ratio under 3 μM AT-7519 addition conditions is indicated as blank.
The inhibitory rate of the test compound against CDK12 at […] is shown below.
For orientation: Time-resolved FRET reads energy transfer from a long-lived donor to a nearby acceptor.
For the compound `COc1ncc(-c2ccc(N(C(=O)NCc3ccccc3)[C@H]3CC[C@H](Nc4ncc(C(F)(F)F)c(N5CCCC(O)CC5)n4)CC3)nc2)cn1` (stereo partly drawn) [Example 592, 3-benzyl-1-(trans-4-((4-(4-hydroxyazepan-1-yl)-5-(trifluoromethyl)pyrimidin-2-yl)amino)cyclohexyl)-1-(5-(2-methoxypyrimidin-5-yl)pyridin-2-yl)urea], the inhibition at 1 µM came out at 101%. The same measure, in the same setting: under `COc1ncc(-c2ccc(N(C(=O)NCc3ccccc3)[C@H]3CC[C@H](Nc4ncc(C#N)c(N5CCCC(O)CC5)n4)CC3)nc2)cn1` (stereo partly drawn) [Example 595, 3-benzyl-1-(trans-4-((5-cyano-4-(4-hydroxyazepan-1-yl)pyrimidin-2-yl)amino)cyclohexyl)-1-(5-(2-methoxypyrimidin-5-yl)pyridin-2-yl)urea] stands 104%. The same measure, in the same setting: under `COc1ncc(-c2ccc(N(C(=O)OCc3ccccc3)[C@H]3CC[C@H](Nc4ncc(C#N)c(N5CCCC(O)CC5)n4)CC3)nc2)cn1` (stereo partly drawn) [Example 599, benzyl (trans-4-((5-cyano-4-(4-hydroxyazepan-1-yl)pyrimidin-2-yl)amino)cyclohexyl) (5-(2-methoxypyrimidin-5-yl)pyridin-2-yl)carbamate] stands 102%; under `COc1ncc(-c2cnc(N(C(=O)NCc3ccccc3)[C@H]3CC[C@H](Nc4ncc(C(F)(F)F)c(OC5COC5)n4)CC3)nc2)cn1` [Example 606, 3-benzyl-1-(2′-methoxy-5,5′-bipyrimidin-2-yl)-1-(trans-4-((4-(oxetan-3-yloxy)-5-(trifluoromethyl)pyrimidin-2-yl)amino)cyclohexyl)urea], 96%; under `COc1ncc(-c2cnc(N(C(=O)OCc3ccccc3)[C@H]3CC[C@H](Nc4ncc(C#N)c(N5CC(C)(O)C5)n4)CC3)nc2)cn1` [Example 619, benzyl (trans-4-((5-cyano-4-(3-hydroxy-3-methylazetidin-1-yl)pyrimidin-2-yl)amino)cyclohexyl) (2′-methoxy-5,5′-bipyrimidin-2-yl)carbamate], 98%.

For `COc1ncc(-c2cnc(N(C(=O)NCc3ccccc3)[C@H]3CC[C@H](Nc4ncc(C#N)c(N5CC(C)(O)C5)n4)CC3)cn2)cn1` [Example 620, 3-benzyl-1-(trans-4-((5-cyano-4-(3-hydroxy-3-methylazetidin-1-yl)pyrimidin-2-yl)amino)cyclohexyl)-1-(5-(2-methoxypyrimidin-5-yl)pyrazin-2-yl)urea], the inhibition at 1 µM worked out at 97%. On the same count and under the same terms, under `COc1ncc(-c2ccc(N(C(=O)COc3ccccc3)[C@H]3CC[C@H](Nc4ncc(C(F)(F)F)c(N5CC(C)(O)C5)n4)CC3)nc2)cn1` [Example 623, N-(trans-4-((4-(3-hydroxy-3-methylazetidin-1-yl)-5-(trifluoromethyl)pyrimidin-2-yl)amino)cyclohexyl)-N-(5-(2-methoxypyrimidin-5-yl)pyridin-2-yl)-2-phenoxyacetamide] stands 100%; under `COc1ncc(-c2ccc(N(C(=O)NCc3ccccc3)[C@H]3CC[C@H](Nc4ncc(C(F)(F)F)c(N5CC(C)(O)C5)n4)CC3)nc2)cn1` [Example 625, 3-benzyl-1-(trans-4-((4-(3-hydroxy-3-methylazetidin-1-yl)-5-(trifluoromethyl)pyrimidin-2-yl)amino)cyclohexyl)-1-(5-(2-methoxypyrimidin-5-yl)pyridin-2-yl)urea], 103%; under `COc1ncc(-c2ccc(N(C(=O)NCc3ccccc3)[C@H]3CC[C@H](Nc4ncc(C#N)c(N5CC(C)(O)C5)n4)CC3)nc2)cn1` [Example 626, 3-benzyl-1-(trans-4-((5-cyano-4-(3-hydroxy-3-methylazetidin-1-yl)pyrimidin-2-yl)amino)cyclohexyl)-1-(5-(2-methoxypyrimidin-5-yl)pyridin-2-yl)urea], 105%.

Turning to `COc1ncc(-c2ccc(N(C(=O)COc3ccccc3)[C@H]3CC[C@H](Nc4ncc(C(F)(F)F)c(OC5COC5)n4)CC3)nc2)cn1` [Example 627, N-(5-(2-methoxypyrimidin-5-yl)pyridin-2-yl)-N-(trans-4-((4-(oxetan-3-yloxy)-5-(trifluoromethyl)pyrimidin-2-yl)amino)cyclohexyl)-2-phenoxyacetamide], the inhibition at 1 µM is 98%. Still for that read-out and setting: the same measure for `COc1ncc(-c2ccc(N(C(=O)OCc3ccccn3)[C@H]3CC[C@H](Nc4ncc(C(F)(F)F)c(N5CC(C)(O)C5)n4)CC3)nc2)cn1` [Example 628, pyridin-2-ylmethyl (trans-4-((4-(3-hydroxy-3-methylazetidin-1-yl)-5-(trifluoromethyl)pyrimidin-2-yl)amino)cyclohexyl) (5-(2-methoxypyrimidin-5-yl)pyridin-2-yl)carbamate]: 100%; for `COc1ncc(-c2ccc(N(C(=O)OCc3ccccn3)[C@H]3CC[C@H](Nc4ncc(C(F)(F)F)c(OC5COC5)n4)CC3)nc2)cn1` [Example 629, pyridin-2-ylmethyl (5-(2-methoxypyrimidin-5-yl)pyridin-2-yl) (trans-4-((4-(oxetan-3-yloxy)-5-(trifluoromethyl)pyrimidin-2-yl)amino)cyclohexyl)carbamate]: 100%. Same read-out and setting: under `COc1ncc(-c2ccc(N(C(=O)NCc3ccccn3)[C@H]3CC[C@H](Nc4ncc(C(F)(F)F)c(N5CC(C)(O)C5)n4)CC3)nc2)cn1` [Example 630, 1-(trans-4-((4-(3-hydroxy-3-methylazetidin-1-yl)-5-(trifluoromethyl)pyrimidin-2-yl)amino)cyclohexyl)-1-(5-(2-methoxypyrimidin-5-yl)pyridin-2-yl)-3-(pyridin-2-ylmethyl)urea] stands 104%.

As to `COc1ncc(-c2ccc(N(C(=O)N[C@H](C)c3ccccc3)[C@H]3CC[C@H](Nc4ncc(C(F)(F)F)c(N5CC(C)(O)C5)n4)CC3)nc2)cn1` [Example 631, 1-(trans-4-((4-(3-hydroxy-3-methylazetidin-1-yl)-5-(trifluoromethyl)pyrimidin-2-yl)amino)cyclohexyl)-1-(5-(2-methoxypyrimidin-5-yl)pyridin-2-yl)-3-((1R)-1-phenylethyl)urea], the inhibition at 1 µM stood at 103%.

As to `COc1ncc(-c2ccc(N(C(=O)N[C@@H](C)c3ccccc3)[C@H]3CC[C@H](Nc4ncc(C(F)(F)F)c(N5CC(C)(O)C5)n4)CC3)nc2)cn1` [Example 633, 1-(trans-4-((4-(3-hydroxy-3-methylazetidin-1-yl)-5-(trifluoromethyl)pyrimidin-2-yl)amino)cyclohexyl)-1-(5-(2-methoxypyrimidin-5-yl)pyridin-2-yl)-3-((1S)-1-phenylethyl)urea], the inhibition at 1 µM turned out to be 102%.

The target in a further assay is T1, CDK12/CycK complex. The assay can be described thus: Measurement of CDK12 inhibitory activity by binding assay (BODIPY-FL labeled AT-7519 high concentration conditions, 1320 nM). To be noted: inhibitory rate against CDK12 at 1 μM test compound, 1320 nM BODIPY-FL-labeled AT-7519, 8 nM CDK12/CycK. As to the method:
(4) Measurement of CDK12 Inhibitory Activity by Binding Assay (BODIPY-FL Labeled AT-7519 High Concentration Conditions)
as §1, with “complex was blended with a binding” for “complex was added to a binding”, “biotin-labeled anti-histidine antibody. This solution” for “biotin-labeled anti-histidine antibody, and the mixture was stood for not less than 60 min at room temperature. This solution”, “set to 8 nM, 1320” for “set to 2 nM, 66”, “8 nM, 1320 nM, 0.2” for “2 nM, 66 nM, 0.2”
as §2
The TR-FRET ratio of the CDK12 enzyme reaction mixture under compound non-addition conditions is indicated as control, and the TR-FRET ratio under 30 μM AT-7519 addition conditions is indicated as blank.
The inhibitory rate of the test compound against CDK12 at 1 μM is shown below.
`COc1ncc(-c2cnc(N(C(=O)NCc3ccccc3)[C@H]3CC[C@H](Nc4ncc(C(F)(F)F)c(OC5(C)COC5)n4)CC3)cn2)cn1` [Example 640, 3-benzyl-1-(5-(2-methoxypyrimidin-5-yl)pyrazin-2-yl)-1-(trans-4-((4-((3-methyloxetan-3-yl)oxy)-5-(trifluoromethyl)pyrimidin-2-yl)amino)cyclohexyl)urea]: the inhibition at 1 µM was 105%. The same measure, in the same setting: under `COc1ncc(-c2ccc(N(C(=O)NCC(F)F)[C@H]3CC[C@H](Nc4ncc(C(F)(F)F)c(-c5cncc(S(C)(=O)=O)c5)n4)CC3)nc2)cn1` [Example 741, 3-(2,2-difluoroethyl)-1-(trans-4-((4-(5-(methane-sulfonyl)pyridin-3-yl)-5-(trifluoromethyl)pyrimidin-2-yl)amino)cyclohexyl)-1-(5-(2-methoxypyrimidin-5-yl)pyridin-2-yl)urea] stands 87%; under `COc1ncc(-c2cnc(N(C(=O)NCC(F)F)[C@H]3CC[C@H](Nc4ncc(C(F)(F)F)c(-c5n[nH]c(C)c5Cl)n4)CC3)cn2)cn1` [Example 745, 1-(trans-4-((4-(4-chloro-5-methyl-1H-pyrazol-3-yl)-5-(trifluoromethyl)pyrimidin-2-yl)amino)cyclohexyl)-3-(2,2-difluoroethyl)-1-(5-(2-methoxypyrimidin-5-yl)pyrazin-2-yl)urea], 94%.
